In ChEMBL document CHEMBL1155955, “Structure-activity relationship studies of the chromosome segregation inhibitor, Incentrom A” (2008):
In brackets after ≈: the same amount, converted by molar mass. Activity calls are given as the source filed them. The rule behind the calls is not given here.

Columns and labels:
[1] = tested on: Saccharomyces cerevisiae; assay: Antiproliferative activity against yeast YPH278 assessed as reduction in cell viability after 24 hrs; format: functional
[2] = tested on: Saccharomyces cerevisiae; assay: Inhibition of chromosome segregation in yeast YPH278 at 15 uM; format: functional, organism-based
[3] = tested on: Saccharomyces cerevisiae; assay: Inhibition of chromosome segregation in yeast YPH278 at 5 uM; format: functional, organism-based

Structure (SMILES)	MIC [1]	Activity [2]	Activity [3]
c1ccc(COc2ccc(CCCN3CCN(CCCCn4c5ccccc5c5ccccc54)CC3)cc2)cc1	> 45 µM	–	–
O=C(OC(CN1CCN(C/C=C/c2ccccc2)CC1)Cn1c2ccccc2c2ccccc21)c1ccccc1 (stereo unspecified)	> 45 µM	–	–
Oc1cccc(/C=C/CN2CCN(CCCCn3c4ccccc4c4ccccc43)CC2)c1	27 µM (≈ 11.9 µg/mL)	–	–
[N-]=[N+]=NC(CN1CCN(C/C=C/c2ccccc2)CC1)Cn1c2ccccc2c2ccccc21 (stereo unspecified)	> 45 µM	–	–
OC(CN1CCN(C/C=C/c2ccccc2)CC1)CN(c1ccccc1)c1ccccc1 (stereo unspecified)	45 µM (≈ 19.2 µg/mL)	–	–
CC(=O)OC(Cc1ccccc1)CN1CCN(CCCCn2c3ccccc3c3ccccc32)CC1 (stereo unspecified)	18 µM (≈ 8.71 µg/mL)	–	–
Nc1ccc(CCCN2CCN(CCCCn3c4ccccc4c4ccccc43)CC2)cc1	16 µM (≈ 7.05 µg/mL)	–	–
C(=C\c1ccccc1)/CN1CCN(CCCCCCCCn2c3ccccc3c3ccccc32)CC1	44 µM (≈ 21.1 µg/mL)	–	–
CCCCCCOc1ccc(CCCN2CCN(CCCCn3c4ccccc4c4ccccc43)CC2)cc1	> 45 µM	–	–
O=C(OC(Cc1ccccc1)CN1CCN(CCCCn2c3ccccc3c3ccccc32)CC1)c1ccccc1 (stereo unspecified)	> 45 µM	–	–
O=C(Nc1ccc2c(c1)c1ccccc1n2CCCCN1CCN(C/C=C/c2ccccc2)CC1)c1ccccc1	> 45 µM	–	–
O=C(CN1CCN(C/C=C/c2ccccc2)CC1)Cn1c2ccccc2c2ccccc21	> 45 µM	–	–
Oc1ccc(CCCN2CCN(CCCCn3c4ccccc4c4ccccc43)CC2)cc1	28 µM (≈ 12.4 µg/mL)	–	–
OC(CN1CCN(Cc2ccccc2)CC1)Cn1c2ccccc2c2ccccc21 (stereo unspecified)	> 45 µM	–	–
CN(C)c1ccc(/C=C/CN2CCN(CCCCn3c4ccccc4c4ccccc43)CC2)cc1	42 µM (≈ 19.6 µg/mL)	–	–
CC(=O)OC(CN1CCN(C/C=C/c2ccccc2)CC1)Cn1c2ccccc2c2ccccc21 (stereo unspecified)	18 µM (≈ 8.42 µg/mL)	–	–
CCCCCCCCOc1ccc(CCCN2CCN(CCCCn3c4ccccc4c4ccccc43)CC2)cc1	> 45 µM	–	–
Nc1ccc(/C=C/CN2CCN(CCCCn3c4ccccc4c4ccccc43)CC2)cc1	15 µM (≈ 6.58 µg/mL)	–	–
O=c1c2ccccc2n(CCCCN2CCN(C/C=C/c3ccccc3)CC2)c2ccccc12	> 45 µM	–	–
OC(CN1CCN(C/C=C/c2ccccc2)CC1)Cn1c2c(c3ccccc31)CCCC2 (stereo unspecified)	25 µM (≈ 10.7 µg/mL)	–	–
OC(CN1CCN(C/C=C/c2ccccc2)CC1)Cn1ccc2ccccc21 (stereo unspecified)	> 45 µM	–	–
CC(=O)Nc1ccc2c(c1)c1ccccc1n2CCCCN1CCN(C/C=C/c2ccccc2)CC1	> 45 µM	–	–
OC(CN1CCN(CCCc2ccccc2)CC1)Cn1c2ccccc2c2ccccc21 (stereo unspecified)	20 µM (≈ 8.55 µg/mL)	–	–
c1ccc2cc(CN3CCN(CCCCn4c5ccccc5c5ccccc54)CC3)ccc2c1	30 µM (≈ 13.4 µg/mL)	–	–

Second part, led by results:

MIC [1]	Structure (SMILES)	Activity [2]	Activity [3]
5 µM (≈ 2.2 µg/mL)	c1ccc(CCCCN2CCN(CCCCn3c4ccccc4c4ccccc43)CC2)cc1	–	–
15 µM (≈ 6.38 µg/mL)	O[C@@H](CN1CCN(C/C=C/c2ccccc2)CC1)Cn1c2ccccc2c2ccccc21	–	–
15 µM (≈ 6.38 µg/mL)	OC(CN1CCN(C/C=C/c2ccccc2)CC1)Cn1c2ccccc2c2ccccc21 (stereo unspecified)	Active	–
5 µM (≈ 2.32 µg/mL)	[N-]=[N+]=Nc1ccc(/C=C/CN2CCN(CCCCn3c4ccccc4c4ccccc43)CC2)cc1	–	Active
5 µM (≈ 2.16 µg/mL)	c1ccc2c(c1)c1ccccc1n2CCCCN1CCN(CCCC2CCCCC2)CC1	–	–
5 µM (≈ 2.12 µg/mL)	C(=C\c1ccccc1)/CN1CCN(CCCCn2c3ccccc3c3ccccc32)CC1	–	Active
5 µM (≈ 2.34 µg/mL)	O=[N+]([O-])c1ccc2c(c1)c1ccccc1n2CCCCN1CCN(C/C=C/c2ccccc2)CC1	–	–
7 µM (≈ 3.08 µg/mL)	c1ccc(C2OC2CN2CCN(CCCCn3c4ccccc4c4ccccc43)CC2)cc1 (stereo unspecified)	–	–
12 µM (≈ 4.91 µg/mL)	C(=C\c1ccccc1)/CN1CCN(CCCn2c3ccccc3c3ccccc32)CC1	–	–
10 µM (≈ 4.28 µg/mL)	C(=C\c1ccccc1)/CN1CCN(CCCCn2c3c(c4ccccc42)CCCC3)CC1	–	–
14 µM (≈ 5.96 µg/mL)	O[C@H](CN1CCN(C/C=C/c2ccccc2)CC1)Cn1c2ccccc2c2ccccc21	–	–
7 µM (≈ 3.09 µg/mL)	OC(CN1CCN(C/C=C/c2ccccc2)CC1)CN1c2ccccc2Oc2ccccc21 (stereo unspecified)	–	–
9 µM (≈ 3.7 µg/mL)	c1ccc(CCN2CCN(CCCCn3c4ccccc4c4ccccc43)CC2)cc1	–	–
4 µM (≈ 1.81 µg/mL)	c1ccc(CCCCCN2CCN(CCCCn3c4ccccc4c4ccccc43)CC2)cc1	–	–
12 µM (≈ 5.3 µg/mL)	OC(Cc1ccccc1)CN1CCN(CCCCn2c3ccccc3c3ccccc32)CC1 (stereo unspecified)	–	–
7 µM (≈ 3.16 µg/mL)	C(=C\c1ccccc1)/CN1CCN(CCCCCCn2c3ccccc3c3ccccc32)CC1	–	–
12 µM (≈ 5.44 µg/mL)	COc1cccc(/C=C/CN2CCN(CCCCn3c4ccccc4c4ccccc43)CC2)c1	–	–
8 µM (≈ 3.65 µg/mL)	COc1ccc(CCCN2CCN(CCCCn3c4ccccc4c4ccccc43)CC2)cc1	–	–
6 µM (≈ 2.63 µg/mL)	C(=C\c1ccccc1)/CN1CCN(CCCCCn2c3ccccc3c3ccccc32)CC1	–	–
